Read-outs that look alike come from different tables or passages of the source. Marks after values point to notes of the source that are not given here.
Legend:
[1] = mouse, iv; for AUC0–∞ / C max: in vivo, 10 mg/kg
Protocol: (§1) All animal experiments were performed in the I Tech Lab. Co., Ltd (Gifu, Japan). The study protocol was approved by the Institutional Animal Care and Use Committee of the company (approval numbers: ITL-25-MO-385 for the oral administration test and ITL-25-MV-386 for the intravenous injection test). Slc:ICR (ICR) male mice aged 7–8 weeks, supplied by Japan SLC Inc. (Shizuoka, Japan), were used in this study. The body weight of the mice at the beginning of the experiments ranged from 42.8 to 52.3 g. The mice were maintained under stable laboratory conditions (temperature: 18–28 °C; humidity: 30–80%; 12 h light/dark cycle) and provided with drinking water and a standard laboratory diet (MF; Oriental Yeast Co., Ltd, Tokyo, Japan) throughout the acclimation and testing periods. After an 11-day acclimation period, single oral administration and intravenous injection tests were conducted. For the oral administration test, 15 mice were randomly assigned to four groups: control (placebo; soybean oil administered), (all-E)-astaxanthin administered (n = 4), (9Z)-astaxanthin administered (n = 4), and (13Z)-astaxanthin administered (n = 4). Each astaxanthin isomer was administered to mice at a dose of 100 mg per kg body weight. […] Blood samples were collected before and 3, 6, 9, 12, and 24 h after the administration of the test diets. Fecal samples were collected 6–24 h after administering astaxanthin. In the intravenous injection test, 15 mice were randomly assigned to four groups: control (placebo; solvent intravenously injected), (all-E)-astaxanthin intravenously injected (n = 4), (9Z)-astaxanthin intravenously injected (n = 4), and (13Z)-astaxanthin intravenously injected (n = 4). Each astaxanthin isomer was intravenously injected into mice at a dose of 10 mg per kg body weight.[24] Blood samples were collected before and 1, 3, 6, 9, and 12 h after injecting the test samples. After these tests, the mice were sacrificed by exsanguination under anesthesia (ketamine hydrochloride and xylazine hydrochloride), and the liver was collected. Plasma samples were prepared from heparin-treated blood by centrifugation. The collected plasma, liver, and fecal samples were immediately stored at −80 °C under dark condition until just before astaxanthin extraction.
(§2) Astaxanthin isomers in the plasma, liver, and fecal samples were extracted according to previous reports.[14,15] In brief, astaxanthin isomers in plasma were extracted using hexane containing 0.01% BHT. An equal volume of methanol was added to each plasma sample to precipitate the proteins prior to hexane extraction. The extraction was performed three times using a vortex mixer for 30 s. After separating the hexane and aqueous layers by centrifugation, the hexane layer was carefully collected and removed using an evaporator. The obtained solid was dissolved in a mixture of hexane and ethyl acetate (9 : 1), filtered through a 0.22 μm PTFE membrane filter, and analyzed using HPLC. Astaxanthin isomers in liver and fecal samples were extracted using acetone containing 0.01% BHT. The samples were ultrasonicated at 80 W and 38 kHz for 30 min in ice water (∼5 °C) to facilitate extraction. The extraction residue was separated from the extraction liquid using a 0.22 μm PTFE membrane filter. The filtrate containing astaxanthin isomers was concentrated to dryness using an evaporator. Finally, the residue was dissolved in a mixture of hexane and ethyl acetate (9 : 1), filtered through a 0.22 μm PTFE membrane filter, and analyzed using HPLC. To minimize the isomerization and degradation of astaxanthin during the extraction process, heat and light exposure were carefully controlled.

[2] = male, ICR, mouse; for F NCA (absolute oral bioavailability) / AUC0–∞ / C max / T max: in vivo, 100 mg/kg; for AUC0–∞ / C max / T max / in vivo isomerization in plasma: po
Protocol: as §1, §2

| AUC0–∞ ([1]; male, ICR) | C max ([1]; male, ICR) | F NCA (absolute oral bioavailability) [2] | AUC0–∞ [2] | C max [2] | T max [2] | Structure (SMILES) | in vivo isomerization in plasma [1] | in vivo isomerization in plasma [2] | in vivo isomerization in plasma ([1]; male, ICR) |
| --- | --- | --- | --- | --- | --- | --- | --- | --- | --- |
| 127100 ± 32400 ng·h/mL | 5460 ± 1340 ng/mL | 0.18 | 82200 ± 57400 ng·h/mL | 7700 ± 5090 ng/mL | 6 h | CC(C=CC=C(C)C=CC1=C(C)C(=O)C(O)CC1(C)C)=CC=CC=C(C)C=CC=C(C)C=CC1=C(C)C(=O)C(O)CC1(C)C (stereo not drawn) [(13Z)-Astaxanthin, (13Z)-astaxanthin] | the isomer composition remained relatively stable | a minor portion of the 13Z-isomer isomerized to the all-E-isomer | – |
| 310 ± 200 ng·h/mL | 100 ± 70 ng/mL | 0.12 | 1460 ± 1350 ng·h/mL | 10 ± 10 ng/mL | 3 (9) ^d h | CC(C=CC=C(C)C=CC1=C(C)C(=O)C(O)CC1(C)C)=CC=CC=C(C)C=CC=C(C)C=CC1=C(C)C(=O)C(O)CC1(C)C (stereo not drawn) [(all-E)-Astaxanthin, (all-E)-astaxanthin] | – | a small portion of (all-E)-astaxanthin was converted to the 13Z- and 15Z-isomers | the proportion of the 13Z-isomer gradually increased over time |
| 19400 ± 3300 ng·h/mL | 2030 ± 160 ng/mL | 0.04 | 4330 ± 2070 ng·h/mL | 1010 ± 510 ng/mL | 4 h | CC(C=CC=C(C)C=CC1=C(C)C(=O)C(O)CC1(C)C)=CC=CC=C(C)C=CC=C(C)C=CC1=C(C)C(=O)C(O)CC1(C)C (stereo not drawn) [(9Z)-Astaxanthin, (9Z)-astaxanthin] | markedly limited isomerization | isomerized into a variety of Z-isomers, including the all-E-, 13Z-, and 15Z-isomers, and two unidentified Z-isomers | – |

From publication PMC12598559, “Absorption characteristics and in vivo behavior of astaxanthin isomers: insights from the administration of highly purified (all-E)-, (9Z)-, and (13Z)-astaxanthin in male mice” (RSC Advances, 2025)
